Source: patent publication US5254541A, “(Quinolin-2-ylmethoxy)indole/cyclodextrin complex” (Merck Frosst Canada, Inc., priority 1991, dated 1993)
Where a name gives a salt, the structure may show the parent alone.

Columns and labels:
[1] = solid state characteristics of the crystalline sodium salt; format: physicochemical; details: non-hygroscopicity, physical stability, etc.
aqueous solubility = format: physicochemical; details: water, crystalline sodium salt
[2] = format: physicochemical
Experimental: Phase solubility experiments were conducted by adding excess amounts (20 mg/mL) of L-686,708, sodium salt, to aqueous solutions (pH=9) containing various amounts of cyclodextrin and mixing on a rotating mixer. After equilibration at room temperature for at least 48 hrs, aliquots of the mixture were centrifuged to separate the undissolved sodium salt. The supernatant was diluted and dissolved L-686,708 concentration measured by HPLC. […] This stability constant is a tentative measure of complex formation.

[3] = oral bioavailability, general statement; details: in vivo

- solubility (aqueous solubility): 5 to 30 µg/mL
- type of solubility curve (Higuchi) [2]: An -type
- oral bioavailability (in words) [3]: low oral bioavailability
SMILES: CC(C)(C)Sc1c(CC(C)(C)C(=O)O)n(Cc2ccc(Cl)cc2)c2ccc(OCc3ccc4ccccc4n3)cc12 [L-686,708 sodium salt, Crystalline 3-[N-(p-chlorobenzyl)-3-(t-butylthio)-5-(quinolin-2-ylmethoxy)indol-2-yl]-2.2-dimethylpropanoic acid, sodium salt]
- solid state characteristics (in words) [1]: good solid state characteristics, such as non-hygroscopicity, physical stability
